Laboratory results reported in ChEMBL document CHEMBL2203055, “From α4β2 Nicotinic Ligands to the Discovery of σ1 Receptor Ligands: Pharmacophore Analysis and Rational Design” (ACS Med Chem Lett, 2012).

Columns and labels:
[1] = target: T1, Sodium-dependent noradrenaline transporter (Homo sapiens, UniProt P23975); assay: Displacement of [3H]nisoxetine from human recombinant NET after 1.5 hrs by microbeta scintillation counting analysis
[2] = target: T2, 5-hydroxytryptamine receptor 2A (Homo sapiens, UniProt P28223); assay: Displacement of [3H]ketanserin from human recombinant 5-HT2A receptor after 1.5 hrs by microbeta scintillation counting analysis
[3] = target: Histamine H4 receptor (Homo sapiens) (UniProt Q9H3N8); assay: Displacement of [3H]histamine from histamine H4 receptor at 10 uM after 1.5 hrs by microbeta scintillation counting analysis
[4] = target: Histamine H3 receptor (Homo sapiens) (UniProt Q9Y5N1); assay: Displacement of [3H]alpha-methylhistamine from human recombinant histamine H3 receptor at 10 uM after 1.5 hrs by microbeta scintillation counting analysis
Histamine H1 receptor = Histamine H1 receptor (Homo sapiens, UniProt P35367); assay: Displacement of [3H]pyrilamine from human recombinant histamine H1 receptor at 10 uM after 1.5 hrs by microbeta scintillation counting analysis
[5] = target: Kappa-type opioid receptor (Rattus norvegicus) (UniProt P34975); assay: Displacement of [3H]U69593 from rat kappa-opioid receptor at 10 uM after 1.5 hrs by microbeta scintillation counting analysis
[6] = target: Muscarinic acetylcholine receptor M4 (Homo sapiens) (UniProt P08173); assay: Displacement of [3H]QNB from human recombinant muscarinic M4 receptor at 10 uM after 1.5 hrs by microbeta scintillation counting analysis
[7] = target: Muscarinic acetylcholine receptor M2 (Homo sapiens) (UniProt P08172); assay: Displacement of [3H]QNB from human recombinant muscarinic M2 receptor at 10 uM after 1.5 hrs by microbeta scintillation counting analysis
[8] = target: Muscarinic acetylcholine receptor M1 (Homo sapiens) (UniProt P11229); assay: Displacement of [3H]QNB from human recombinant muscarinic M1 receptor at 10 uM after 1.5 hrs by microbeta scintillation counting analysis
[9] = target: Beta-3 adrenergic receptor (Homo sapiens) (UniProt P13945); assay: Displacement of [125I]Iodopindolol from beta 3 adrenergic receptor at 10 uM after 1.5 hrs by microbeta scintillation counting analysis
[10] = target: Beta-2 adrenergic receptor (Homo sapiens, UniProt P07550); assay: Displacement of [125I]Iodopindolol from beta 2 adrenergic receptor at 10 uM after 1.5 hrs by microbeta scintillation counting analysis
[11] = target: Alpha-2B adrenergic receptor (Homo sapiens) (UniProt P18089); assay: Displacement of [3H]clonidine from human recombinant alpha 2B adrenergic receptor at 10 uM after 40 mins by microbeta scintillation counting analysis
[12] = target: Alpha-2C adrenergic receptor (Homo sapiens) (UniProt P18825); assay: Displacement of [3H]clonidine from alpha 2C adrenergic receptor at 10 uM after 40 mins by microbeta scintillation counting analysis
[13] = target: Alpha-2A adrenergic receptor (Homo sapiens) (UniProt P08913); assay: Displacement of […] from alpha 2A adrenergic receptor at 10 uM after 40 mins by microbeta scintillation counting analysis
[14] = target: Alpha-1B adrenergic receptor (Homo sapiens) (UniProt P35368); assay: Displacement of [3H]prazosin from alpha 1B adrenergic receptor at 10 uM after 1 hr by microbeta scintillation counting analysis
[15] = target: Alpha-1D adrenergic receptor (Homo sapiens) (UniProt P25100); assay: Inhibitory activity against alpha 1D adrenergic receptor at 10 uM
[16] = target: Alpha-1A adrenergic receptor (Homo sapiens) (UniProt P35348); assay: Displacement of [3H]prazosin from alpha 1A adrenergic receptor at 10 uM after 1 hr by microbeta scintillation counting analysis
[17] = target: T1, Sodium-dependent noradrenaline transporter; assay: Displacement of [3H]nisoxetine from human recombinant NET at 10 uM after 1.5 hrs by microbeta scintillation counting analysis
[18] = target: D(4) dopamine receptor (Homo sapiens) (UniProt P21917); assay: Displacement of [3H]N-methylspiperone from D4 receptor at 10 uM after 1.5 hrs by microbeta scintillation counting analysis
[19] = target: D(2) dopamine receptor (Homo sapiens) (UniProt P14416); assay: Displacement of [3H]N-methylspiperone from human recombinant D2 receptor at 10 uM after 1.5 hrs by microbeta scintillation counting analysis
[20] = target: D(1A) dopamine receptor (Homo sapiens) (UniProt P21728); assay: Displacement of [3H]SCH23390 from human recombinant D1 receptor at 10 uM after 1.5 hrs by microbeta scintillation counting analysis
Rattus norvegicus = species on record: Rattus norvegicus; assay: Displacement of [3H]muscimol from GABAA receptor in rat brain membrane at 10 uM after 1.5 hrs by microbeta scintillation counting analysis; type: cell membranes
[21] = target: 5-hydroxytryptamine receptor 7 (Homo sapiens) (UniProt P34969); assay: Displacement of [3H]LSD from human recombinant 5-HT7 receptor at 10 uM after 1.5 hrs by microbeta scintillation counting analysis
[22] = target: 5-hydroxytryptamine receptor 6 (Homo sapiens, UniProt P50406); assay: Displacement of [3H]LSD from human recombinant 5-HT6 receptor at 10 uM after 1.5 hrs by microbeta scintillation counting analysis
[23] = target: 5-hydroxytryptamine receptor 5A (Homo sapiens) (UniProt P47898); assay: Displacement of [3H]LSD from human recombinant 5-HT5A receptor at 10 uM after 1.5 hrs by microbeta scintillation counting analysis
[24] = target: 5-hydroxytryptamine receptor 3A (Homo sapiens) (UniProt P46098); assay: Displacement of [3H]LY-278584 from human recombinant 5-HT3 receptor at 10 uM after 1.5 hrs by microbeta scintillation counting analysis
[25] = target: 5-hydroxytryptamine receptor 2C (Homo sapiens) (UniProt P28335); assay: Displacement of [3H]mesulergine from human recombinant 5-HT2C receptor at 10 uM after 1.5 hrs by microbeta scintillation counting analysis
[26] = target: 5-hydroxytryptamine receptor 2B (Homo sapiens, UniProt P41595); assay: Displacement of [3H]LSD from human recombinant 5-HT2B receptor at 10 uM after 1.5 hrs by microbeta scintillation counting analysis
[27] = target: T2, 5-hydroxytryptamine receptor 2A; assay: Displacement of [3H]ketanserin from human recombinant 5-HT2A receptor at 10 uM after 1.5 hrs by microbeta scintillation counting analysis
[28] = target: 5-hydroxytryptamine receptor 1E (Homo sapiens) (UniProt P28566); assay: Displacement of [3H]5-HT from human recombinant 5-HT1E receptor at 10 uM after 1.5 hrs by microbeta scintillation counting analysis
[29] = target: 5-hydroxytryptamine receptor 1D (Homo sapiens) (UniProt P28221); assay: Displacement of [3H]GR125743 from human recombinant 5-HT1D receptor at 10 uM after 1.5 hrs by microbeta scintillation counting analysis
[30] = target: 5-hydroxytryptamine receptor 1B (Homo sapiens) (UniProt P28222); assay: Displacement of [3H]GR125743 from human recombinant 5-HT1B receptor at 10 uM after 1.5 hrs by microbeta scintillation counting analysis
[31] = target: 5-hydroxytryptamine receptor 1A (Homo sapiens) (UniProt P08908); assay: Displacement of [3H]-8-OH-DPAT from human recombinant 5-HT1A receptor at 10 uM after 1.5 hrs by microbeta scintillation counting analysis
[32] = Displacement of [3H]DTG from sigma 2 receptor in rat PC12 cell membrane after 2 hrs by microbeta scintillation counting analysis; type: cell membranes; settings: pc-12

T1 sequence (P23975 whole entry): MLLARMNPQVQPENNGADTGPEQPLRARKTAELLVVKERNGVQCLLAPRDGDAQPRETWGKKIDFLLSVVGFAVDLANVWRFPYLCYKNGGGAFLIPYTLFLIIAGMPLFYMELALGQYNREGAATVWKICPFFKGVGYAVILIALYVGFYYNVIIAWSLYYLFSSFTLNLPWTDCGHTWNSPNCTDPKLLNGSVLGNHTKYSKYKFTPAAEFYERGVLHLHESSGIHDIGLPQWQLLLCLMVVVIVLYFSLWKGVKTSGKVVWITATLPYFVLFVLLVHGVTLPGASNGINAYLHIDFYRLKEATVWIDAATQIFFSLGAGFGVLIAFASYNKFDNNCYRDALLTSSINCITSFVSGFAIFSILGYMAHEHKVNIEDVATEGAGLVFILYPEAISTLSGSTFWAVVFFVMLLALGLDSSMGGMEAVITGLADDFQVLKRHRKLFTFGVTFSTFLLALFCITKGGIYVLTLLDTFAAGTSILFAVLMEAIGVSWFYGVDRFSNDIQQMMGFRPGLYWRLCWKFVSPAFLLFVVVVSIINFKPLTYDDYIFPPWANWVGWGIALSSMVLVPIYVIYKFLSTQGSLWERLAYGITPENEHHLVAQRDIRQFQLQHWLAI
T2 sequence (P28223 whole entry): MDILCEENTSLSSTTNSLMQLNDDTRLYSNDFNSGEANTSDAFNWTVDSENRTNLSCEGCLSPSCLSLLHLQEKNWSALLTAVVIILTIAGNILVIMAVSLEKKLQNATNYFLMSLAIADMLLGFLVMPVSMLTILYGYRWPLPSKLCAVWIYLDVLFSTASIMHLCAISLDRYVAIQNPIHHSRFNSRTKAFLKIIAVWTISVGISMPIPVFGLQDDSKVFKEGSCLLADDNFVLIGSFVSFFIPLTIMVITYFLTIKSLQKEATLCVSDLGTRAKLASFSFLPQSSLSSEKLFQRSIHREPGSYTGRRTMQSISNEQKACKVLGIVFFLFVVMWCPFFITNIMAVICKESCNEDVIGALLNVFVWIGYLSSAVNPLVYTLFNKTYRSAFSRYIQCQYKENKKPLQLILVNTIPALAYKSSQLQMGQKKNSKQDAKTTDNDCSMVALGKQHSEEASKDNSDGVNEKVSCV
Sequence of Muscarinic acetylcholine receptor M2 (Homo sapiens) (P08172 whole entry): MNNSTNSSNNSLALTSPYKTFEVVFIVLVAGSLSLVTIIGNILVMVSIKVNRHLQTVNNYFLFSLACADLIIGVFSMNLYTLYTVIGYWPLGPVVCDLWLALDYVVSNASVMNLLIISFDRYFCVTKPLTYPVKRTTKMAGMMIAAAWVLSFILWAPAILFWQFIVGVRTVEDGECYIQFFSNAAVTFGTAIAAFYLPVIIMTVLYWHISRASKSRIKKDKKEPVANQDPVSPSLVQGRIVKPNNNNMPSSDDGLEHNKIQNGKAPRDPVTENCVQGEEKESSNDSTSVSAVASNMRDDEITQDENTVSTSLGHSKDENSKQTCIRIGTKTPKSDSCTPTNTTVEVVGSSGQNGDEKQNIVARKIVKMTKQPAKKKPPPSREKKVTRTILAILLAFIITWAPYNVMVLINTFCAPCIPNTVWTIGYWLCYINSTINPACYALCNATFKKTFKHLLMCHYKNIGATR
Sequence of D(1A) dopamine receptor (Homo sapiens) (P21728 whole entry): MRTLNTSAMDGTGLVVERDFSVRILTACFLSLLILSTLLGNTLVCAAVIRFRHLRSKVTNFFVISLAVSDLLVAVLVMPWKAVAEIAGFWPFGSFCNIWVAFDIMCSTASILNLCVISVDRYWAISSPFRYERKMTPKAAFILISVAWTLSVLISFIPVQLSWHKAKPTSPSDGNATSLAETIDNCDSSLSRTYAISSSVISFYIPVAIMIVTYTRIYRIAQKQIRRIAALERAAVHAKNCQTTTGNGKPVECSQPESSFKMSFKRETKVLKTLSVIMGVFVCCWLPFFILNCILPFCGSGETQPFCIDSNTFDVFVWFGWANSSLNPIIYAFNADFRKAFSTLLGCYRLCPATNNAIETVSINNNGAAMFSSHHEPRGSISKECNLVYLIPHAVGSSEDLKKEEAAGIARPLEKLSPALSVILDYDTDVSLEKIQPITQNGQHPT
Sequence of Histamine H4 receptor (Homo sapiens) (Q9H3N8 whole entry): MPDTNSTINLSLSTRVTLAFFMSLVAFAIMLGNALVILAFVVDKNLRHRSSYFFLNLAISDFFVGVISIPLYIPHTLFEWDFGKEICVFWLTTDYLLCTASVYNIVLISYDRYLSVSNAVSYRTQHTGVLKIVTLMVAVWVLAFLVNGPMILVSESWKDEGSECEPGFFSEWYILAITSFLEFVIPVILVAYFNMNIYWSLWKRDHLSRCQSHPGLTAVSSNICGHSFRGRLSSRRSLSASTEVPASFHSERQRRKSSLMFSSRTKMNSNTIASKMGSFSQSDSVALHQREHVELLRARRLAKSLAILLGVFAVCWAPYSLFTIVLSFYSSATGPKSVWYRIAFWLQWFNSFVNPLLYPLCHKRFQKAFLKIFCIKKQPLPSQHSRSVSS
Sequence of Histamine H1 receptor (P35367 whole entry): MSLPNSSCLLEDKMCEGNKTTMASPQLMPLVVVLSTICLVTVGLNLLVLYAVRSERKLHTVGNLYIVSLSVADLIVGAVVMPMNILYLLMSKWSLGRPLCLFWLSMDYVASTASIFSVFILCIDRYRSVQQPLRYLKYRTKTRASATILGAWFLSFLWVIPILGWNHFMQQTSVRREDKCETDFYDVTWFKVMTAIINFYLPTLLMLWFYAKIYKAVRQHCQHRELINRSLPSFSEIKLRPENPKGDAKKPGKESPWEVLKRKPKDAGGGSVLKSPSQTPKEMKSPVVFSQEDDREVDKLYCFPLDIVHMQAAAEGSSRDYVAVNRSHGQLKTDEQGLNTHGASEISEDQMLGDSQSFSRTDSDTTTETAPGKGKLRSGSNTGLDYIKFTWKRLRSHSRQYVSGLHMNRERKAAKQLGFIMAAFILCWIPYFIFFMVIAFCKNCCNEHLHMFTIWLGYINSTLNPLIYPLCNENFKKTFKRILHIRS
Sequence of 5-hydroxytryptamine receptor 3A (Homo sapiens) (P46098 whole entry): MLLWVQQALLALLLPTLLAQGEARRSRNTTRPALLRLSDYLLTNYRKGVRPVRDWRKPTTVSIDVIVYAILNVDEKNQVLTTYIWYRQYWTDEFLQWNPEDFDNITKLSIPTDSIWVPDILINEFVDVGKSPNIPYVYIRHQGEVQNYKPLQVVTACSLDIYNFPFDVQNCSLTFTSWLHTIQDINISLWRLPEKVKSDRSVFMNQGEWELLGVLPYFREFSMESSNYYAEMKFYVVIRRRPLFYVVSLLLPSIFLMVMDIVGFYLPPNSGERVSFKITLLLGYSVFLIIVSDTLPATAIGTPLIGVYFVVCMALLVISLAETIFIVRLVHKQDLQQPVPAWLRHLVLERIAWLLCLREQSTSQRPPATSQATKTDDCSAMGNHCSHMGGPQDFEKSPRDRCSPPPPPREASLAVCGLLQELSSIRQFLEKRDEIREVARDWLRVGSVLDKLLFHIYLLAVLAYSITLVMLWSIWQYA
Sequence of D(4) dopamine receptor (Homo sapiens) (P21917 whole entry): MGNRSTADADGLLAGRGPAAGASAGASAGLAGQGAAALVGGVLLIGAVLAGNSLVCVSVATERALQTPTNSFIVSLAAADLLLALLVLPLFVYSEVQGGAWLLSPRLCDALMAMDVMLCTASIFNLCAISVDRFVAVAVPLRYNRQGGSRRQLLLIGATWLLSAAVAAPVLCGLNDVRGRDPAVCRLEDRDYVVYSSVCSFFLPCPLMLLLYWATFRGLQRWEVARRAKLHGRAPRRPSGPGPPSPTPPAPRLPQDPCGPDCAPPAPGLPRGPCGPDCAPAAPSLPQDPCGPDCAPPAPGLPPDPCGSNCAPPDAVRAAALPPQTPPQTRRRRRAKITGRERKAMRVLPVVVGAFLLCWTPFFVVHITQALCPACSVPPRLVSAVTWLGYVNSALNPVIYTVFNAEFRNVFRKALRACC
Sequence of 5-hydroxytryptamine receptor 1E (Homo sapiens) (P28566 whole entry): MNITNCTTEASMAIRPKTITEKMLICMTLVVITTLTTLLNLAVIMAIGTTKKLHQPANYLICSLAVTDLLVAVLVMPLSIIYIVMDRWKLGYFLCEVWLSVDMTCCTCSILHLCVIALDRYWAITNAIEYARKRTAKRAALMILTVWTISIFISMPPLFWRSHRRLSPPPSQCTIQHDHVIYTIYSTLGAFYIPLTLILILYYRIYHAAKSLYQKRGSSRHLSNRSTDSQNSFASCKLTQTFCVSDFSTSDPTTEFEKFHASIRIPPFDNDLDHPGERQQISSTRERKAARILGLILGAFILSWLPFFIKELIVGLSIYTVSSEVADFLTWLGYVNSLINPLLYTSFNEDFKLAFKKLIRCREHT
Sequence of Kappa-type opioid receptor (Rattus norvegicus) (P34975 whole entry): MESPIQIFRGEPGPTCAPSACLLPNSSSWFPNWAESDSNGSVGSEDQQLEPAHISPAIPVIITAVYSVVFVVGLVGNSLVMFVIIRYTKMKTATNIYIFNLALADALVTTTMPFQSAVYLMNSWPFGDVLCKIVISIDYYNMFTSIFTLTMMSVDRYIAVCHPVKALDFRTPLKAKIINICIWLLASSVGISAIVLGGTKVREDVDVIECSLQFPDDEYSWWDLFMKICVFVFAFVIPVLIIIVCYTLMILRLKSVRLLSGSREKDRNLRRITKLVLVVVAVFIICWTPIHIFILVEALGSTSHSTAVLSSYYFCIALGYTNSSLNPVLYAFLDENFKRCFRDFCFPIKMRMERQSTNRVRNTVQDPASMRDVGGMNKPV
Sequence of Beta-2 adrenergic receptor (P07550 whole entry, looked up): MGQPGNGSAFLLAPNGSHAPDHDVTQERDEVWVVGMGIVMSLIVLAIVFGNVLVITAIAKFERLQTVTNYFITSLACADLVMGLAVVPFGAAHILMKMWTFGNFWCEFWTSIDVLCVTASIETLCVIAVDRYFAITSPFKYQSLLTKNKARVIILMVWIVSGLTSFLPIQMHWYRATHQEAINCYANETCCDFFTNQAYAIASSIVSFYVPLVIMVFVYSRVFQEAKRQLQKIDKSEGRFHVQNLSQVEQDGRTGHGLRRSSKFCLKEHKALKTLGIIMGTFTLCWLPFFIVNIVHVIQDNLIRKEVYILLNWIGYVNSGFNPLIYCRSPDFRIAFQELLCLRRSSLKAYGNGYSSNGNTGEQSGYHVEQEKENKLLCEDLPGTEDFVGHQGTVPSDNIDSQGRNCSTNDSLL

## c1ccc(OCc2cc(OC[C@@H]3CCCN3)no2)cc1
[1]
  Ki: 0.203 µM
[2]
  Ki: 4.41 µM
[3]
  Efficacy: 26.5%
[4]
  Efficacy: -4.9%
Histamine H1 receptor
  Efficacy: 55%
[5]
  Efficacy: 9.4%
[6]
  Efficacy: 33.6%
[7]
  Efficacy: 11.8%
[8]
  Efficacy: 4.4%
[9]
  Efficacy: 7.2%
[10]
  Efficacy: 55.6%
[11]
  Efficacy: 44.4%
[12]
  Efficacy: 39.3%
[13]
  Efficacy: 36.1%
[14]
  Efficacy: 27.8%
[15]
  Efficacy: 25.2%
[16]
  Efficacy: 21%
[17]
  Efficacy: 95.9%
[18]
  Efficacy: 32%
[19]
  Efficacy: 23.9%
[20]
  Efficacy: -5.7%
Rattus norvegicus
  Efficacy: 5.7%
[21]
  Efficacy: 16.9%
[22]
  Efficacy: 28.3%
[23]
  Efficacy: 32.4%
[24]
  Efficacy: 7%
[25]
  Efficacy: 76.9%
[26]
  Efficacy: 54.5%
[27]
  Efficacy: 68%
[28]
  Efficacy: -4.7%
[29]
  Efficacy: 15.7%
[30]
  Efficacy: -1.2%
[31]
  Efficacy: 34.4%
[32]
  Ki: 1.31 µM

## c1ccc(OCc2cc(OC[C@@H]3CCN3)no2)cc1
[1]
  Ki: 0.191 µM
[2]
  Ki: 6.4 µM
[3]
  Efficacy: 42.6%
[4]
  Efficacy: 4.7%
Histamine H1 receptor
  Efficacy: 49.2%
[5]
  Efficacy: 6.7%
[6]
  Efficacy: 35.1%
[7]
  Efficacy: 12.6%
[8]
  Efficacy: 5.7%
[9]
  Efficacy: -1.5%
[10]
  Efficacy: 29.4%
[11]
  Efficacy: 34.8%
[12]
  Efficacy: 43.8%
[13]
  Efficacy: 17.4%
[14]
  Efficacy: 18.1%
[15]
  Efficacy: 22.4%
[16]
  Efficacy: 17.5%
[17]
  Efficacy: 97.2%
[18]
  Efficacy: 30%
[19]
  Efficacy: 22.9%
[20]
  Efficacy: 6.1%
Rattus norvegicus
  Efficacy: 2.5%
[21]
  Efficacy: 42.4%
[22]
  Efficacy: 51.6%
[23]
  Efficacy: 15.2%
[24]
  Efficacy: -0.1%
[25]
  Efficacy: 68.8%
[26]
  Efficacy: 43.3%
[27]
  Efficacy: 77.9%
[28]
  Efficacy: 5.9%
[29]
  Efficacy: 14%
[30]
  Efficacy: 2.3%
[31]
  Efficacy: 26.3%
[32]
  Ki: 1.47 µM
